Measured values taken from patent publication US9217012B2, “Inhibitors of protein tyrosine phosphatases” (Indiana University Research and Technology Corporation, priority 2009, dated 2015).
Where a SMILES comes first, the peptide text is derived from it. [ ]: non-standard residue; d: D form. F2Pmp = N[CH](Cc1ccc(C(F)(F)P(=O)(O)O)cc1)C(=O)O

How the values were obtained:
TC-PTP = TC-PTP (Homo sapiens (Human), UniProt P17706); experiment: PTP activity assay with pNPP substrate, TC-PTP; format: biochemical; settings: for IC50: 2 mM pNPP, DMG buffer, 25° C., Table 1, read-out: IC50 for TC-PTP
Description: (§1) The PTP activity was assayed using p-nitrophenyl phosphate (pNPP) as a substrate in DMG buffer at 25° C. […] The reaction rate was measure using a SPECTRAMAX microplate spectrophotometer (Molecular Devices). For the determination of Km, the initial velocity and substrate concentration data were fitted to Michaelis-Menten equation using SIGMAPLOT. […] The assays were performed in 96-well plates. […] The reaction rate was measured using a Spectra Max Plus 384 Microplate Spectrophotometer (Molecular Devices). […] The reactions were incubated at room temperature for 30 min and quenched with 5N NaOH. The absorbance at 405 nm was read on the SpectraMax Plus 384 Microplate Spectrophotometer. For the reversibility test, the enzyme was incubated with the inhibitor at room temperature for 30 min before pNPP was added to initiate the reaction. The reaction was then incubated at room temperature for 30 min and quenched and read. […] Data were fitted using SigmaPlot Enzyme Kinetics Module (Systat Software, Inc.)

PTP1B = PTP1B (Homo sapiens (Human), UniProt P18031); experiment: PTP activity assay with pNPP substrate, PTP1B; format: biochemical; settings: 2 mM pNPP, DMG buffer, 25° C.; Table 1
Description: as §1

Sequence of PTP1B (P18031 whole entry, species assumed): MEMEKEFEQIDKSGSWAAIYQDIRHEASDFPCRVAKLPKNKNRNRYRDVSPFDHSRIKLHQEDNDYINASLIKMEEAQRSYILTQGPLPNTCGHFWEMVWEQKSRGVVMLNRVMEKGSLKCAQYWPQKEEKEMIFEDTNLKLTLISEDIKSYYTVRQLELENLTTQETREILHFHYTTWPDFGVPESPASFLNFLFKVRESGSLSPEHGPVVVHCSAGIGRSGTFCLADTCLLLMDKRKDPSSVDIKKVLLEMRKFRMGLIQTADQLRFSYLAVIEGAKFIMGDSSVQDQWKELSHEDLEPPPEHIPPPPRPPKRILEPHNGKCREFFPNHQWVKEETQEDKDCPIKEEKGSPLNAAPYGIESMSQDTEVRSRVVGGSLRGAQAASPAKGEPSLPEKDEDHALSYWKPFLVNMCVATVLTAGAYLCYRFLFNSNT
Sequence of TC-PTP (P17706 whole entry): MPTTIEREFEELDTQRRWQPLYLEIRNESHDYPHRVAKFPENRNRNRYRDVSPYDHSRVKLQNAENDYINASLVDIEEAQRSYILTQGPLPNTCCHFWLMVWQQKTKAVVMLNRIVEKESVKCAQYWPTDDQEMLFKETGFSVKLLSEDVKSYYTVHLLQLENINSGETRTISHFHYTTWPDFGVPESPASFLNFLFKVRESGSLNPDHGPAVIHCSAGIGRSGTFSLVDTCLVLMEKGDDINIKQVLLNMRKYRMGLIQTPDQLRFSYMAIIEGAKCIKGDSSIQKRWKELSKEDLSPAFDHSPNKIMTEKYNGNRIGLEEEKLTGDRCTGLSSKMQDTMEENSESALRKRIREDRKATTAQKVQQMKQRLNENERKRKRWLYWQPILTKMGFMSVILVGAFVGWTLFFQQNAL

IC50 (TC-PTP) | IC50 (PTP1B) | selectivity for TC-PTP over PTP1B (TC-PTP; TC-PTP versus PTP1B) | fold lower TC-PTP IC50 than parent compound 4 (TC-PTP; relative to compound 4) | SMILES | change in selectivity against PTP1B relative to 6 (TC-PTP; relative to compound 6) | fold increase in affinity for TC-PTP relative to 6 (TC-PTP; relative to compound 6)
2000 nM | 2000 nM | – | – | CC(=O)NCCCCC(NC(=O)C(Cc1ccc(C(F)(F)P(=O)(O)O)cc1)NC(C)=O)C(N)=O (stereo not shown) [Compound 4] (Ac-[F2Pmp]-Lys(Ac)-NH2; configuration not given here) | – | –
160 ± 20 nM | 700 ± 20 nM | 4.4 fold | 12.5 fold | CCc1ccc(C(=O)NCCCCC(NC(=O)C(Cc2ccc(C(F)(F)P(=O)(O)O)cc2)NC(C)=O)C(N)=O)cc1 (stereo not shown) [Compound 6] | – | –

SMILES | IC50 (TC-PTP) | IC50 (PTP1B) | selectivity for TC-PTP over PTP1B (TC-PTP; TC-PTP versus PTP1B) | fold lower TC-PTP IC50 than parent compound 4 (TC-PTP; relative to compound 4) | change in selectivity against PTP1B relative to 6 (TC-PTP; relative to compound 6) | fold increase in affinity for TC-PTP relative to 6 (TC-PTP; relative to compound 6)
CCc1ccc(C(=O)NCCCCC(NC(=O)C(Cc2ccc(C(F)(F)P(=O)(O)O)cc2)NC(=O)C(Cc2ccccc2)NC(C)=O)C(N)=O)cc1 (stereo not shown) [Compound 8] | 26 ± 2 nM | 87 ± 2 nM | – | – | no appreciable change | 6.2 fold
